# Tests used:
# [1] = PET, rats
# Procedure: Emission scans were acquired in three-dimensional list mode with an energy window of 350–650 keV under isoflurane anesthesia, from 0 to 60 min after radioprobe administration. All list-mode acquisition data were sorted into three-dimensional sinograms, which were then Fourier-rebinned into two-dimensional sonograms (frames × min: 4 × 1, 8 × 2, 8 × 5), and corrections for scanner dead time, randoms, and decay of the injected radioprobe. Dynamic images were reconstructed with filtered back-projection using a Hanning filter and a Nyquist cut-off of 0.5 cycles/pixel. Immediately after completion of PET scans, contrast-enhanced CT scans were performed in the rats by using the small-animal CT system (R_mCT2; Rigaku, Tokyo) after injection of 1 mL of non-ionic contrast medium (Iopamiron 370, Bayer, Osaka). The scan conditions included radiation parameters of 200 μA and 90 kV, FOV of 60 mm, and acquisition time of 34 s. CT images were collected, reconstructed, and observed using I-View-R software (Rigaku, The Woodlands, TX). Averaged CT attenuation images and dynamic PET images were reconstructed and fused using the Siemens Inveon Research Workplace (IRW) 4.0 software.
# Regions of interest (ROI) in major organs and tissues were drawn in the PET/CT fusion images by manual outlining the organs and tissues in the CT images throughout the image slices by using IRW 4.0 software. The average radioactivity concentration was obtained from mean pixel values in the ROI volume. Regional uptake of radioactivity was decay-corrected to the injection time and expressed as the standardized uptake value (SUV), normalized for injected radioactivity and body weight. SUV was calculated as SUV = (radioactivity per cubic centimeter tissue/injected radioactivity) × body weight in grams. TACs of the radioprobes in individual organ and tissue were determined. Values of area under time-activity curves (AUC2–60 min, SUV × min) were calculated from 2 to 60 min post-injection to minimize the early perfusion effects.
# [2] = Ex vivo biodistribution studies; details: SD rats; for Biodistribution, radioactivity in Pancreas / Biodistribution, radioactivity in Blood / Biodistribution, radioactivity in Brain / Biodistribution, radioactivity in Heart / Biodistribution, radioactivity in Intestine / Biodistribution, radioactivity in Liver / Biodistribution, radioactivity in Lung / Biodistribution, radioactivity in Muscle / Biodistribution, radioactivity in Spleen / Biodistribution, radioactivity in Kidney: mean ± SEM, n = 4
# Text: Major organs and tissues (blood, heart, lung, liver, pancreas, spleen, kidney, intestine, muscle, and brain), were promptly excised, harvested, and weighed. Radioactivity was counted using a γ-counter and expressed as a percentage of the injected dose per gram of wet tissue (%ID/g). All radioactivity measurements were corrected for decay.
# [3] = Ex vivo metabolite studies; type: in vivo; details: SD rats; for Ex vivo metabolite analysis, % of tailored L- and D-1MTrp entity in Brain / Ex vivo metabolite analysis, % of tailored L- and D-1MTrp entity in Pancreas / Ex vivo metabolite analysis, % of tailored L- and D-1MTrp entity in Plasma: HPLC, mean ± SEM, n = 4
# Procedure: To validate the derivation of radioactivity into the relevant organs and tissues, we assessed the metabolites of both radiolabelled isomers in the blood, brain, and pancreas of rats. […] Few radioactive metabolites were detected in these three tissues at 15 and 60 min after ^11C-L-1MTrp and ^11C-D-1MTrp injection.
# SD rats were injected with ^11C-L-1MTrp or ^11C-D-1MTrp (70–74 MBq, 0.4–0.6 nmol) via a lateral tail vein. The animals were sacrificed by cervical dislocation at 15 and 60 min after the injection. Blood was collected and centrifuged at 15000 rpm for 2 min at 4 °C to separate the plasma. Brain and pancreas were rapidly removed, then homogenized in equal volumes of 1 M HClO4 solution with a Silent Crusher S homogenizer (Heidolph Instruments). Plasma and homogenates of brain and pancreas from rats were deproteinized and then analyzed by HPLC as described in the stability assay in vitro.
# [4] = In vitro stability assay in rat plasma; type: in vitro ADME; details: 37 °C, 90 min incubation, HPLC analysis
# Procedure: To determine the in vitro property of the two newly-developed radioprobes, we performed plasma stability studies by HPLC analysis at 37 °C for 90 min. […] More than 95% of ^11C-L-1Mtrp and ^11C-D-1Mtrp remained intact and no detectable metabolites were found at least 90 min after plasma incubation in vitro.
# ^11C-L-1MTrp and ^11C-D-1MTrp (70–74 MBq, 0.4−0.6 nmol) was dissolved in 2 mL of freshly isolated rat plasma and incubated at 37 °C for 90 min. After 0, 30, 60 and 90 min, an aliquot of 300 μL incubated mixture was taken, proteins in plasma were precipitated with equal volumes of 1 M HClO4 solution, followed by centrifugation at 15000 rpm for 2 min at 4 °C. The supernatant was collected and analyzed by HPLC (Capcell Pack UG80 column, 4.6 mm i.d. × 250 mm) with […] phosphate buffer/CH3CN (8.5/1.5, v/v) at a flow rate of 1 mL/min.
# [5] = 60 min after injection, mean ± SEM, four rats
smiles,measurement,setting,value
"Cn1cc(C[C@H](N)C(=O)O)c2ccccc21 [L-1MTrp, 1-Methyl-L-tryptophan, reference compound]",SUV in the pancreas,[1]; [5],2.28
same,"Biodistribution, radioactivity in Pancreas",[2]; 60 min after injection,2.27 %ID/g tissue
"[11CH3]n1cc(C[C@@H](N)C(=O)O)c2ccccc21 [^11C-D-1MTrp, 1-N-^11C-methyl-D-tryptophan]","Radioactivity in the brain, pancreas, and blood associated with L- and D-1MTrp",[3]; 15 and 60 min after injection,more than 94%
same,"Ex vivo metabolite analysis, % of tailored L- and D-1MTrp entity in Brain",[3]; 15 min after injection,95.06 ± 0.38%
same,"Ex vivo metabolite analysis, % of tailored L- and D-1MTrp entity in Pancreas",[3]; 15 min after injection,94.08 ± 0.51%
same,"Ex vivo metabolite analysis, % of tailored L- and D-1MTrp entity in Plasma",[3]; 15 min after injection,94.45 ± 0.03%
same,"Ex vivo metabolite analysis, % of tailored L- and D-1MTrp entity in Brain",[3]; 60 min after injection,98.16 ± 0.47%
same,"Ex vivo metabolite analysis, % of tailored L- and D-1MTrp entity in Pancreas",[3]; 60 min after injection,96.31 ± 0.48%
same,"Ex vivo metabolite analysis, % of tailored L- and D-1MTrp entity in Plasma",[3]; 60 min after injection,98.81 ± 0.25%
same,SUV in the kidney,[1]; [5],1.79 ± 0.07
same,SUV in the other organs (other than kidneys),"[1]; 60 min after injection, span over organs",0.20−0.61
same,Maximum accumulation (SUV) in the kidneys,[1]; within 5 min after administration,6.03 ± 0.43
same,Fraction remaining intact in rat plasma,[4],More than 95%
same,"Biodistribution, radioactivity in Blood",[2]; 1 min after injection,1.47 ± 0.02 %ID/g tissue
same,"Biodistribution, radioactivity in Brain",[2]; 1 min after injection,0.04 ± 0.00 %ID/g tissue
same,"Biodistribution, radioactivity in Heart",[2]; 1 min after injection,0.58 ± 0.02 %ID/g tissue
same,"Biodistribution, radioactivity in Intestine",[2]; 1 min after injection,0.93 ± 0.02 %ID/g tissue
same,"Biodistribution, radioactivity in Liver",[2]; 1 min after injection,1.24 ± 0.03 %ID/g tissue
same,"Biodistribution, radioactivity in Lung",[2]; 1 min after injection,0.79 ± 0.03 %ID/g tissue
same,"Biodistribution, radioactivity in Muscle",[2]; 1 min after injection,0.12 ± 0.00 %ID/g tissue
same,"Biodistribution, radioactivity in Pancreas",[2]; 1 min after injection,0.76 ± 0.07 %ID/g tissue
same,"Biodistribution, radioactivity in Spleen",[2]; 1 min after injection,0.62 ± 0.02 %ID/g tissue
same,"Biodistribution, radioactivity in Blood",[2]; 5 min after injection,0.79 ± 0.03 %ID/g tissue
same,"Biodistribution, radioactivity in Brain",[2]; 5 min after injection,0.05 ± 0.01 %ID/g tissue
same,"Biodistribution, radioactivity in Heart",[2]; 5 min after injection,0.55 ± 0.02 %ID/g tissue
same,"Biodistribution, radioactivity in Intestine",[2]; 5 min after injection,0.68 ± 0.02 %ID/g tissue
same,"Biodistribution, radioactivity in Liver",[2]; 5 min after injection,0.97 ± 0.02 %ID/g tissue
same,"Biodistribution, radioactivity in Lung",[2]; 5 min after injection,0.60 ± 0.02 %ID/g tissue
same,"Biodistribution, radioactivity in Muscle",[2]; 5 min after injection,0.26 ± 0.01 %ID/g tissue
same,"Biodistribution, radioactivity in Pancreas",[2]; 5 min after injection,1.03 ± 0.15 %ID/g tissue
same,"Biodistribution, radioactivity in Spleen",[2]; 5 min after injection,0.51 ± 0.02 %ID/g tissue
same,"Biodistribution, radioactivity in Blood",[2]; 15 min after injection,0.49 ± 0.01 %ID/g tissue
same,"Biodistribution, radioactivity in Brain",[2]; 15 min after injection,0.08 ± 0.00 %ID/g tissue
same,"Biodistribution, radioactivity in Heart",[2]; 15 min after injection,0.52 ± 0.02 %ID/g tissue
same,"Biodistribution, radioactivity in Intestine",[2]; 15 min after injection,0.53 ± 0.00 %ID/g tissue
same,"Biodistribution, radioactivity in Kidney",[2]; 15 min after injection,3.66 ± 0.15 %ID/g tissue
same,"Biodistribution, radioactivity in Liver",[2]; 15 min after injection,0.64 ± 0.01 %ID/g tissue
same,"Biodistribution, radioactivity in Lung",[2]; 15 min after injection,0.46 ± 0.02 %ID/g tissue
same,"Biodistribution, radioactivity in Muscle",[2]; 15 min after injection,0.35 ± 0.01 %ID/g tissue
same,"Biodistribution, radioactivity in Pancreas",[2]; 15 min after injection,1.01 ± 0.06 %ID/g tissue
same,"Biodistribution, radioactivity in Spleen",[2]; 15 min after injection,0.48 ± 0.01 %ID/g tissue
same,"Biodistribution, radioactivity in Blood",[2]; 30 min after injection,0.40 ± 0.01 %ID/g tissue
same,"Biodistribution, radioactivity in Brain",[2]; 30 min after injection,0.11 ± 0.00 %ID/g tissue
same,"Biodistribution, radioactivity in Heart",[2]; 30 min after injection,0.42 ± 0.02 %ID/g tissue
same,"Biodistribution, radioactivity in Intestine",[2]; 30 min after injection,0.40 ± 0.01 %ID/g tissue
same,"Biodistribution, radioactivity in Kidney",[2]; 30 min after injection,2.12 ± 0.16 %ID/g tissue
same,"Biodistribution, radioactivity in Liver",[2]; 30 min after injection,0.47 ± 0.01 %ID/g tissue
same,"Biodistribution, radioactivity in Lung",[2]; 30 min after injection,0.37 ± 0.01 %ID/g tissue
same,"Biodistribution, radioactivity in Muscle",[2]; 30 min after injection,0.38 ± 0.03 %ID/g tissue
same,"Biodistribution, radioactivity in Pancreas",[2]; 30 min after injection,1.21 ± 0.05 %ID/g tissue
same,"Biodistribution, radioactivity in Spleen",[2]; 30 min after injection,0.40 ± 0.02 %ID/g tissue
same,"Biodistribution, radioactivity in Blood",[2]; 60 min after injection,0.32 ± 0.01 %ID/g tissue
same,"Biodistribution, radioactivity in Brain",[2]; 60 min after injection,0.15 ± 0.01 %ID/g tissue
same,"Biodistribution, radioactivity in Heart",[2]; 60 min after injection,0.30 ± 0.01 %ID/g tissue
same,"Biodistribution, radioactivity in Intestine",[2]; 60 min after injection,0.32 ± 0.01 %ID/g tissue
same,"Biodistribution, radioactivity in Kidney",[2]; 60 min after injection,1.16 ± 0.03 %ID/g tissue
same,"Biodistribution, radioactivity in Liver",[2]; 60 min after injection,0.37 ± 0.01 %ID/g tissue
same,"Biodistribution, radioactivity in Lung",[2]; 60 min after injection,0.28 ± 0.01 %ID/g tissue
same,"Biodistribution, radioactivity in Muscle",[2]; 60 min after injection,0.33 ± 0.01 %ID/g tissue
same,"Biodistribution, radioactivity in Pancreas",[2]; 60 min after injection,1.03 ± 0.06 %ID/g tissue
same,"Biodistribution, radioactivity in Spleen",[2]; 60 min after injection,0.32 ± 0.01 %ID/g tissue
same,Measured uptake in organs other than kidneys and pancreas,"[2]; 60 min after radioprobe injection, span over organs",0.15−0.37 % ID/g

# — article PMC4639751, “Development of 1-N-^11C-Methyl-L- and -D-Tryptophan for pharmacokinetic imaging of the immune checkpoint inhibitor 1-Methyl-Tryptophan” (Scientific Reports, 2015)
